Measurements reported in PMC9525273 (Nature Communications, 2022).
Values joined by “and” are separate entries in the source; they are usually repeats but may differ in a detail not shown here. Equal values may be shown once. Read-outs that look alike come from different tables or passages of the source.

Assays:
[1] = tested on: extracellular T. gondii tachyzoites expressing TgATP4^G419S-HA; experiment: [Na+]cyt measurement (SBFI), Na+ dysregulation; format: cell-based, Toxoplasma gondii; design: Final [Na+]cyt reached: unit not given here; details: TgATP4G419S-HA; for IC50: Toxoplasma gondii
Procedure: (§1) The ratio of the fluorescence intensity recorded at 340 nm and 380 nm (with an emission wavelength of 515 nm) was converted to [Na^+]cyt using a calibration procedure that entailed suspending parasites in solutions of varying [Na^+] containing ionophores. Fluorescence measurements and calibrations were performed at 37 °C, either with individual 1 mL suspensions using a PerkinElmer LS 50B fluorescence spectrometer (for resting [Na^+]cyt measurements for which the data are shown in Supplementary Fig. 7) or in 96-well plates using a Tecan Infinite M1000 PRO plate reader with i-control (version 1.12) software (all other [Na^+]cyt measurements).

[2] = tested on: extracellular T. gondii tachyzoites expressing TgATP4^WT; experiment: [Na+]cyt measurement (SBFI), Na+ dysregulation; format: cell-based, Toxoplasma gondii; design: Final [Na+]cyt reached: unit not given here
Procedure: as §1

With `C[C@H]1Cc2c([nH]c3cc(Cl)c(F)cc23)[C@@]2(N1)C(=O)Nc1ccc(Cl)cc12` [Cipargamin] the “Final [Na+]cyt reached” value ([1]; [cipargamin] 7.8 nM, MEAN) was 14.1, the “Final [Na+]cyt reached” value ([1]; [cipargamin] 7.8 nM, single experiments) was 13.4 and 14.3 and 14.5 and the “Final [Na+]cyt reached” value ([1]; [cipargamin] 15.6 nM, MEAN) was 15.4. The “Final [Na+]cyt reached” value ([1]; [cipargamin] 15.6 nM, single experiments) was 14.1 and 15.1 and 17.0, the “Final [Na+]cyt reached” value ([1]; [cipargamin] 31.3 nM, MEAN) was 15.4 and the “Final [Na+]cyt reached” value ([1]; [cipargamin] 31.3 nM, single experiments) was 13.9 and 14.5 and 17.9. For the same compound, the “Final [Na+]cyt reached” value ([1]; [cipargamin] 62.5 nM, MEAN) was 14.3, the “Final [Na+]cyt reached” value ([1]; [cipargamin] 62.5 nM, single experiments) was 13.2 and 14.1 and 15.7 and the “Final [Na+]cyt reached” value ([1]; [cipargamin] 250 nM, MEAN) was 13.7. The “Final [Na+]cyt reached” value ([1]; [cipargamin] 250 nM, single experiments) was 13.6 and 14.5 and 12.9, the “Final [Na+]cyt reached” value ([1]; [cipargamin] 500 nM, MEAN) was 14.5 and the “Final [Na+]cyt reached” value ([1]; [cipargamin] 500 nM, single experiments) was 12.6 and 13.5 and 17.5. For the same compound, the “Final [Na+]cyt reached” value ([1]; [cipargamin] 1000 nM, MEAN) was 16.4, the “Final [Na+]cyt reached” value ([1]; [cipargamin] 1000 nM, single experiments) was 14.3 and 16.7 and 18.1 and the “Final [Na+]cyt reached” value ([1]; [cipargamin] 2000 nM, MEAN) was 17.1. For the same compound, the “Final [Na+]cyt reached” value ([1]; [cipargamin] 2000 nM, single experiments) was 13.3 and 17.0 and 20.8, the “Final [Na+]cyt reached” value ([1]; [cipargamin] 4000 nM, MEAN) was 24.3 and the “Final [Na+]cyt reached” value ([1]; [cipargamin] 4000 nM, single experiments) was 22.1 and 21.4 and 29.4. The “Final [Na+]cyt reached” value ([1]; [cipargamin] 8000 nM, MEAN) was 34.2, the “Final [Na+]cyt reached” value ([1]; [cipargamin] 8000 nM, single experiments) was 32.0 and 31.0 and 39.5 and the IC50 ([1]; 1.5 h, ~90 min exposure, 37 °C, pH 7.1, read-out: IC50 for Na+ dysregulation) was greater than 8000 nM. For the same compound, the IC50 ([1]; MEAN, source data of Table 1 (nM there), read-out: IC50 for Na+ dysregulation, MEAN) was greater than 8000 nM, the IC50 ([1]; single experiments, source data of Table 1 (nM there), read-out: IC50 for Na+ dysregulation) was greater than 8000 nM and the IC50 ([2]; Toxoplasma gondii, 1.5 h, pH 7.1, WT T. gondii (TgATP4WT), ~90 min exposure, 37 °C, pH 7.1, mean ± SEM, read-out: IC50 for Na+ dysregulation) was 110 ± 3 nM. The IC50 ([2]; Toxoplasma gondii, WT T. gondii, MEAN, source data of Table 1 (nM there), read-out: IC50 for Na+ dysregulation, MEAN) was 110 nM, the IC50 ([2]; Toxoplasma gondii, WT T. gondii, single experiments, source data of Table 1 (nM there), read-out: IC50 for Na+ dysregulation) was 103 nM and the “Final [Na+]cyt reached” value ([2]; WT T. gondii, [cipargamin] 0.5 nM, MEAN) was 15.8. The “Final [Na+]cyt reached” value ([2]; WT T. gondii, [cipargamin] 0.5 nM, single experiments) was 14.2 and 16.3 and 16.8, the “Final [Na+]cyt reached” value ([2]; WT T. gondii, [cipargamin] 1.0 nM, MEAN) was 16.2 and the “Final [Na+]cyt reached” value ([2]; WT T. gondii, [cipargamin] 1.0 nM, single experiments) was 15.5 and 17.0 and 16.2. For the same compound, the “Final [Na+]cyt reached” value ([2]; WT T. gondii, [cipargamin] 2.0 nM, MEAN) was 14.1, the “Final [Na+]cyt reached” value ([2]; WT T. gondii, [cipargamin] 3.9 nM, MEAN) was 20.7 and the “Final [Na+]cyt reached” value ([2]; WT T. gondii, [cipargamin] 3.9 nM, single experiments) was 19.6 and 20.6 and 21.8. The “Final [Na+]cyt reached” value ([2]; WT T. gondii, [cipargamin] 7.8 nM, MEAN) was 23.3, the “Final [Na+]cyt reached” value ([2]; WT T. gondii, [cipargamin] 7.8 nM, single experiments) was 25.2 and 22.3 and 22.5 and the “Final [Na+]cyt reached” value ([2]; WT T. gondii, [cipargamin] 15.6 nM, MEAN) was 26.7. For the same compound, the “Final [Na+]cyt reached” value ([2]; WT T. gondii, [cipargamin] 15.6 nM, single experiments) was 29.0 and 26.8 and 24.3, the “Final [Na+]cyt reached” value ([2]; WT T. gondii, [cipargamin] 31.3 nM, MEAN) was 34.0 and the “Final [Na+]cyt reached” value ([2]; WT T. gondii, [cipargamin] 31.3 nM, single experiments) was 35.7 and 36.9 and 29.4. For the same compound, the “Final [Na+]cyt reached” value ([2]; WT T. gondii, [cipargamin] 62.5 nM, MEAN) was 44.2, the “Final [Na+]cyt reached” value ([2]; WT T. gondii, [cipargamin] 62.5 nM, single experiments) was 43.2 and 51.7 and 37.6 and the “Final [Na+]cyt reached” value ([2]; WT T. gondii, [cipargamin] 250 nM, MEAN) was 75.6. The “Final [Na+]cyt reached” value ([2]; WT T. gondii, [cipargamin] 250 nM, single experiments) was 72.9 and 86.9 and 66.9, the “Final [Na+]cyt reached” value ([2]; WT T. gondii, [cipargamin] 500 nM, MEAN) was 86.6 and the “Final [Na+]cyt reached” value ([2]; WT T. gondii, [cipargamin] 500 nM, single experiments) was 82.0 and 102.0 and 75.9. For the same compound, the “Final [Na+]cyt reached” value ([2]; WT T. gondii, [cipargamin] 1000 nM, MEAN) was 91.2, the “Final [Na+]cyt reached” value ([2]; WT T. gondii, [cipargamin] 1000 nM, single experiments) was 85.2 and 107.2 and 81.2 and the IC50 ([2]; WT T. gondii, single experiments, source data of Table 1 (nM there), read-out: IC50 for Na+ dysregulation) was 113 nM.
